# Measured values reported in patent US9446006B2, “Hydroxytyrosol combinations for enhancing mitochondrial function and energy production” (DSM IP ASSETS B.V., priority 2009, dated 2016).
# Entries after “also recorded” stand apart in the source; their conditions may differ.
# Experiments:
# C2C12 mouse myoblasts = assay: Mitochondrial membrane potential by relative JC-1 fluorescence; type: cell-based; details: C2C12 cells, 24 h; for Increase in mitochondrial membrane potential: vs. control
# Source text: The objective of the experiment was to investigate whether and how mitochondrial energy production in myoblasts is affected by hydroxytyrosol alone or in combination with other compounds. For energy production, the mitochondrial electron transport chain generates a proton gradient across the […], creating a membrane potential that powers the synthesis of ATP by the ATP synthase complex. […] If a critical concentration is reached, JC-1 forms aggregates, which changes its fluorescence properties from green to red fluorescence. […] An increased mitochondrial membrane potential indicates an improved energetic state and increased capability to generate ATP and provide energy for other cellular components. […] C2C12 cells were seeded into a 96-well cell culture plate at 1000 cells/well and cultured in growth medium (Dulbecco's modified eagle medium (DMEM) supplemented with 10% fetal bovine serum) in a standard incubator (humidified, 37° C., 5% CO2) for 24 h. […] […] After 24 h of treatment, cells were incubated with medium containing JC-1 (2 ug/ml) for 30 min at 37° C., then the staining solution was removed, DMEM without phenol red was added, and green fluorescence (ex 485 nm/em 538 nm) and red fluorescence (ex 544 nm/em 590 nm) was measured using a fluorescence plate reader (SpectraMax M5). The ratio of red to green fluorescence in each well was determined and the average and standard deviation of the quadruplicate treatments were calculated.
# PGC-1α = PGC-1α protein level in adipocytes (Western blot, densitometry); type: cell-based, murine; details: 3T3-L1 adipocytes; hydroxytyrosol 1.0 μM; vs. control
# Method: Murine 3T3-L1 pre-adipocytes (American Type Culture Collection) were cultured in Dulbecco's Modified Eagle's Medium (DMEM) supplemented with 10% fetal bovine serum and allowed to reach confluence. Differentiation of pre-adipocytes was initiated with 1 μM insulin, 0.25 μM dexamethasone and 0.5 mM 3-isobutyl-1-methylxanthine in DMEM, supplemented with 10% fetal bovine serum. After 48 h, the culture medium was replaced with DMEM supplemented with 10% fetal bovine serum and 1 μM insulin. The culture medium was changed every other day with DMEM containing 10% fetal bovine serum. […] After treatment, cells were washed twice with ice-cold PBS, lysed in sample buffer (62.5 mM Tris-Cl pH 6.8, 2% SDS, 5 mM DTT) at room temperature and vortexed. Cell lysates were then boiled for 5 minutes and cleared by centrifugation (13,000 rpm, 10 minutes at 4° C.). Protein concentration was determined using the Bio-Rad DC protein assay. The soluble lysates (10 μg per lane) were subjected to 10% SDS-PAGE, proteins were then transferred to nitrocellulose membranes and blocked with 5% non-fat milk/TBST for 1 h at room temperature. […] Western blots were developed using ECL (Roche Manheim, Germany) and quantified by scanning densitometry.
# [1] = tested on: mitochondrial electron transport complex I; assay: Mitochondrial complex I protein expression in adipocytes (Western blot); type: cell-based, murine; details: 3T3-L1 adipocytes, 48 hrs, vs. control
# Method: Murine 3T3-L1 pre-adipocytes (American Type Culture Collection) were cultured in Dulbecco's Modified Eagle's Medium (DMEM) supplemented with 10% fetal bovine serum and allowed to reach confluence. Differentiation of pre-adipocytes was initiated with 1 μM insulin, 0.25 μM dexamethasone and 0.5 mM 3-isobutyl-1-methylxanthine in DMEM, supplemented with 10% fetal bovine serum. After 48 h, the culture medium was replaced with DMEM supplemented with 10% fetal bovine serum and 1 μM insulin. The culture medium was changed every other day with DMEM containing 10% fetal bovine serum. […] After treatment, cells were washed twice with ice-cold PBS, lysed in sample buffer (62.5 mM Tris-Cl pH 6.8, 2% SDS, 5 mM DTT) at room temperature and vortexed. Cell lysates were then boiled for 5 minutes and cleared by centrifugation (13,000 rpm, 10 minutes at 4° C.). Protein concentration was determined using the Bio-Rad DC protein assay. The soluble lysates (10 μg per lane) were subjected to 10% SDS-PAGE, proteins were then transferred to nitrocellulose membranes and blocked with 5% non-fat milk/TBST for 1 h at room temperature. Membranes were incubated with primary antibodies directed against PPAR-γ (1:1000), PGC-1α (1:1000), α-tubulin (1:10 000), Complex I (1:2000), Complex II (1:2000), Complex III (1:2000) and Complex V (1:2000) in 5% milk/TBST at 4° C. overnight. After washing membranes with TBST three times, membranes were incubated with horseradish peroxidase-conjugated secondary antibody for 1 h at room temperature. Western blots were developed using ECL (Roche Manheim, Germany) and quantified by scanning densitometry.
structure (smiles),measurement,setting,value
"NC(=O)c1ncn([C@@H]2O[C@H](CO)[C@@H](O)[C@H]2O)c1N [AICAR, aminoimidazole carboxamide ribonucleotide]",Effect on mitochondrial membrane potential (red/green JC-1 fluorescence ratio),C2C12 mouse myoblasts; 500 uM,increase in mitochondrial potential; also recorded: increase mitochondrial membrane potential
same,Increase in mitochondrial membrane potential,C2C12 mouse myoblasts; 500 μM,16%
"Cn1c(=O)c2c(ncn2C)n(C)c1=O [Caffeine, caffeine]",Effect on mitochondrial membrane potential (red/green JC-1 fluorescence ratio),C2C12 mouse myoblasts; 200 uM alone,no significant effect
same,Increase in mitochondrial membrane potential,C2C12 mouse myoblasts; 200 μM alone,−4%
"OCCc1ccc(O)c(O)c1 [Hydroxytyrosol, 3,4-dihydroxyphenylethanol]",Effect on mitochondrial membrane potential (red/green JC-1 fluorescence ratio),C2C12 mouse myoblasts; 1 uM,no significant effect
same,Increase in mitochondrial membrane potential,C2C12 mouse myoblasts; 1 μM,1%
same,Increase in mitochondrial membrane potential,C2C12 mouse myoblasts; 10 μM,11%
same,"PGC-1α protein expression (PGC-1α:α-tubulin ratio), maximum",PGC-1α,205±52%
same,Mitochondrial electron transport complex I protein,[1]; 0.1 μM,131±16%
same,Mitochondrial electron transport complex I protein,[1]; 1.0 μM,163±31%
same,Mitochondrial electron transport complex I protein,[1]; 10.0 μM,138±21%
C[N+](C)(C)C[C@H](O)CC(=O)[O-] [L-carnithine],Effect on mitochondrial membrane potential (red/green JC-1 fluorescence ratio),C2C12 mouse myoblasts; 200 uM alone,no significant effect
same,Increase in mitochondrial membrane potential,C2C12 mouse myoblasts; 200 μM alone,0%
